# Tests used:
# Assay type in all cases: in vivo
# [1] = system: pigweed (Amaranthus retroflexus); experiment: Test A pre-/postemergence: pigweed; conditions: for Pigweed plant response rating: visual rating on 0 to 100 scale (0 no effect, 100 complete control), approximately ten days
# Method in brief: (§1)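 Compounds, formulated with surfactant in non-phytotoxic solvent, were applied as a directed soil spray preemergence and as postemergence sprays to 2–10 cm, one- to two-leaf seedlings grown in loam soil blended with sand; visual injury, 0–100, assessed ~10 days post-treatment against untreated controls.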
# [2] = system: nutsedge, yellow (yellow nutsedge, Cyperus esculentus); experiment: Test C pre-/postemergence: nutsedge, yellow
# Method in brief: (§2)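 Visual injury scored 0–100 (100 = complete control) against untreated controls after 13–15 greenhouse days. Surfactant-containing solvent formulations applied either to soil after sowing (loam/sand) or over 1- to 4-leaf plants, 2–18 cm tall.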
# [3] = system: corn (Zea mays); experiment: Test C pre-/postemergence: corn
# Method in brief: as §2
# [4] = system: lambsquarters (Chenopodium album); experiment: Test C pre-/postemergence: lambsquarters
# Method in brief: as §2
# [5] = system: foxtail, giant (giant foxtail, Setaria faberii); experiment: Test A pre-/postemergence: foxtail, giant; conditions: for Foxtail, Giant plant response rating: visual rating on 0 to 100 scale (0 no effect, 100 complete control), approximately ten days
# Method in brief: as §1
# [6] = system: morningglory (Ipomoea coccinea); experiment: Test C pre-/postemergence: morningglory
# Method in brief: as §2
# [7] = system: blackgrass (Alopecurus myosuroides); experiment: Test C pre-/postemergence: blackgrass
# Method in brief: as §2
# [8] = system: winter wheat (Triticum aestivum); experiment: Test C pre-/postemergence: winter wheat
# Method in brief: as §2
# [9] = system: barnyardgrass (Echinochloa crus-galli); experiment: Test A pre-/postemergence: barnyardgrass; conditions: for Barnyardgrass plant response rating: visual rating on 0 to 100 scale (0 no effect, 100 complete control), approximately ten days
# Method in brief: as §1
# [10] = system: wild oat (Avena fatua); experiment: Test C pre-/postemergence: wild oat; conditions: Postemergence
# Method in brief: as §2
# [11] = system: velvetleaf (Abutilon theophrasti); experiment: Test A pre-/postemergence: velvetleaf; conditions: for Velvetleaf plant response rating: visual rating on 0 to 100 scale (0 no effect, 100 complete control), approximately ten days
# Method in brief: as §1
# [12] = system: chickweed (common chickweed, Stellaria media); experiment: Test C postemergence: chickweed
# Method in brief: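 Visual ratings of 0 (no effect) to 100 (complete control) were made against controls 13-15 days after a postemergence spray, with plants kept in a greenhouse. Plants were 2-18 cm tall (1- to 4-leaf stage) in Redi-Earth peat/vermiculite medium at treatment.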
# [13] = Postemergence, 125 g ai/ha, 0 to 100 scale, 0 is no effect, 100 is complete control
# [14] = Preemergence, 125 g ai/ha, 0 to 100 scale where 0 is no effect and 100 is complete control
# [15] = Preemergence, 500 g ai/ha, 0 to 100 scale (0 no effect, 100 complete control)
# [16] = Postemergence, 31 g ai/ha, scale 0 to 100 (0 no effect, 100 complete control)
# [17] = Postemergence, 62 g ai/ha, scale 0 to 100 (0 no effect, 100 complete control)
# [18] = Postemergence, 125 g ai/ha, scale 0 to 100, 0 no effect, 100 complete control
# [19] = Postemergence, 250 g ai/ha, scale 0 to 100
# [20] = Preemergence, 31 g ai/ha, scale of 0 to 100, 0 is no effect, 100 is complete control
# [21] = Preemergence, 62 g ai/ha, scale of 0 to 100, 0 is no effect, 100 is complete control
# [22] = Preemergence, 125 g ai/ha, scale 0 to 100, 0 no effect, 100 complete control
# [23] = Preemergence, 250 g ai/ha, scale 0 to 100, 0 no effect, 100 complete control
# [24] = 31 g ai/ha, scale 0 to 100 (0 no effect, 100 complete control)
# [25] = 62 g ai/ha, scale 0 to 100 (0 no effect, 100 complete control)
# [26] = 125 g ai/ha, scale 0 to 100, 0 no effect, 100 complete control
compound,measurement,setting,value
CCCc1nn(-c2ccc(F)cc2)nc1Cc1ccnc(C(F)(F)F)c1 [Compound 153],"Plant response rating, Pigweed",[1]; [13],100
same,Pigweed plant response rating,"[1]; Postemergence, 500 g ai/ha",100
same,"Plant response rating, Pigweed",[1]; [14],100
same,"Plant response rating, Pigweed",[1]; [15],100
same,"Plant response rating, Nutsedge, Yellow",[2]; [16],10
same,"Plant response rating, Nutsedge, Yellow",[2]; [17],10
same,"Plant response rating, Nutsedge, Yellow",[2]; [18],15
same,"Plant response rating, Nutsedge, Yellow",[2]; [19],15
same,"Plant response rating, Nutsedge, Yellow",[2]; [20],0
same,"Plant response rating, Nutsedge, Yellow",[2]; [21],0
same,"Plant response rating, Nutsedge, Yellow",[2]; [22],5
same,"Plant response rating, Corn",[3]; [16],20
same,"Plant response rating, Corn",[3]; [17],25
same,"Plant response rating, Corn",[3]; [18],45
same,"Plant response rating, Corn",[3]; [19],55
same,"Plant response rating, Corn",[3]; [20],10
same,"Plant response rating, Corn",[3]; [21],25
same,"Plant response rating, Corn",[3]; [22],25
same,"Plant response rating, Corn",[3]; [23],35
same,"Plant response rating, Lambsquarters",[4]; [16],95
same,"Plant response rating, Lambsquarters",[4]; [17],95
same,"Plant response rating, Lambsquarters",[4]; [18],95
same,"Plant response rating, Lambsquarters",[4]; [19],95
same,"Plant response rating, Lambsquarters",[4]; [20],95
same,"Plant response rating, Lambsquarters",[4]; [21],100
same,"Plant response rating, Lambsquarters",[4]; [22],100
same,"Plant response rating, Lambsquarters",[4]; [23],100
same,"Plant response rating, Foxtail, Giant",[5]; [13],90
same,"Foxtail, Giant plant response rating","[5]; Postemergence, 500 g ai/ha",100
same,"Plant response rating, Foxtail, Giant",[5]; [14],100
same,"Plant response rating, Foxtail, Giant",[5]; [15],100
same,"Plant response rating, Morningglory",[6]; [16],40
same,"Plant response rating, Morningglory",[6]; [17],80
same,"Plant response rating, Morningglory",[6]; [18],95
same,"Plant response rating, Morningglory",[6]; [19],95
same,"Plant response rating, Morningglory",[6]; [20],20
same,"Plant response rating, Morningglory",[6]; [21],30
same,"Plant response rating, Morningglory",[6]; [22],50
same,"Plant response rating, Morningglory",[6]; [23],50
same,"Plant response rating, Blackgrass",[7]; [16],55
same,"Plant response rating, Blackgrass",[7]; [17],60
same,"Plant response rating, Blackgrass",[7]; [18],70
same,"Plant response rating, Blackgrass",[7]; [19],90
same,"Plant response rating, Blackgrass",[7]; [20],90
same,"Plant response rating, Blackgrass",[7]; [21],90
same,"Plant response rating, Blackgrass",[7]; [22],90
same,"Plant response rating, Blackgrass",[7]; [23],90
same,"Plant response rating, Wheat",[8]; [16],10
same,"Plant response rating, Wheat",[8]; [17],30
same,"Plant response rating, Wheat",[8]; [18],30
same,"Plant response rating, Wheat",[8]; [19],30
same,"Plant response rating, Wheat",[8]; [21],35
same,"Plant response rating, Wheat",[8]; [22],60
same,"Plant response rating, Wheat",[8]; [23],60
same,"Plant response rating, Barnyardgrass",[9]; [13],90
same,Barnyardgrass plant response rating,"[9]; Postemergence, 500 g ai/ha",90
same,"Plant response rating, Barnyardgrass",[9]; [14],100
same,"Plant response rating, Barnyardgrass",[9]; [15],100
same,"Plant response rating, Oat, Wild",[10]; [24],35
same,"Plant response rating, Oat, Wild",[10]; [25],50
same,"Plant response rating, Oat, Wild",[10]; [26],70
same,"Plant response rating, Oat, Wild","[10]; 250 g ai/ha, scale 0 to 100",85
same,"Plant response rating, Velvetleaf",[11]; [13],100
same,Velvetleaf plant response rating,"[11]; Postemergence, 500 g ai/ha",100
same,"Plant response rating, Velvetleaf",[11]; [14],80
same,"Plant response rating, Velvetleaf",[11]; [15],100
same,"Plant response rating, Chickweed",[12]; [24],95
same,"Plant response rating, Chickweed",[12]; [25],95
same,"Plant response rating, Chickweed",[12]; [26],95
same,"Plant response rating, Chickweed","[12]; 250 g ai/ha, scale 0 to 100",95
Cc1nn(-c2ccc(C(F)(F)F)c(F)c2)nc1Cc1ccnc(C(F)(F)F)c1 [Compound 162],"Plant response rating, Pigweed",[1]; [13],100
same,Pigweed plant response rating,"[1]; Postemergence, 500 g ai/ha",100
same,"Plant response rating, Pigweed",[1]; [14],100
same,"Plant response rating, Pigweed",[1]; [15],100
same,"Plant response rating, Nutsedge, Yellow",[2]; [16],5
same,"Plant response rating, Nutsedge, Yellow",[2]; [17],5
same,"Plant response rating, Nutsedge, Yellow",[2]; [18],5
same,"Plant response rating, Nutsedge, Yellow",[2]; [19],10
same,"Plant response rating, Nutsedge, Yellow",[2]; [20],0
same,"Plant response rating, Nutsedge, Yellow",[2]; [21],0
same,"Plant response rating, Nutsedge, Yellow",[2]; [22],5
same,"Plant response rating, Nutsedge, Yellow",[2]; [23],5
same,"Plant response rating, Corn",[3]; [16],15
same,"Plant response rating, Corn",[3]; [17],30
same,"Plant response rating, Corn",[3]; [18],30
same,"Plant response rating, Corn",[3]; [19],40
same,"Plant response rating, Corn",[3]; [20],5
same,"Plant response rating, Corn",[3]; [21],20
same,"Plant response rating, Corn",[3]; [22],20
same,"Plant response rating, Corn",[3]; [23],35
same,"Plant response rating, Lambsquarters",[4]; [16],95
same,"Plant response rating, Lambsquarters",[4]; [17],95
same,"Plant response rating, Lambsquarters",[4]; [18],98
same,"Plant response rating, Lambsquarters",[4]; [19],98
same,"Plant response rating, Foxtail, Giant",[5]; [13],90
same,"Foxtail, Giant plant response rating","[5]; Postemergence, 500 g ai/ha",90
same,"Plant response rating, Foxtail, Giant",[5]; [14],100
same,"Plant response rating, Foxtail, Giant",[5]; [15],100
same,"Plant response rating, Morningglory",[6]; [20],55
same,"Plant response rating, Morningglory",[6]; [21],60
same,"Plant response rating, Morningglory",[6]; [22],80
same,"Plant response rating, Morningglory",[6]; [23],85
same,"Plant response rating, Blackgrass",[7]; [16],45
same,"Plant response rating, Blackgrass",[7]; [17],80
same,"Plant response rating, Blackgrass",[7]; [18],85
same,"Plant response rating, Blackgrass",[7]; [19],90
same,"Plant response rating, Blackgrass",[7]; [20],60
same,"Plant response rating, Blackgrass",[7]; [21],90
same,"Plant response rating, Blackgrass",[7]; [22],90
same,"Plant response rating, Blackgrass",[7]; [23],95
same,"Plant response rating, Wheat",[8]; [16],20
same,"Plant response rating, Wheat",[8]; [17],20
same,"Plant response rating, Wheat",[8]; [18],25
same,"Plant response rating, Wheat",[8]; [19],25
same,"Plant response rating, Wheat",[8]; [21],5
same,"Plant response rating, Wheat",[8]; [22],20
same,"Plant response rating, Wheat",[8]; [23],35
same,"Plant response rating, Barnyardgrass",[9]; [13],80
same,Barnyardgrass plant response rating,"[9]; Postemergence, 500 g ai/ha",90
same,"Plant response rating, Barnyardgrass",[9]; [14],90
same,"Plant response rating, Barnyardgrass",[9]; [15],100
same,"Plant response rating, Oat, Wild",[10]; [24],40
same,"Plant response rating, Oat, Wild",[10]; [25],60
same,"Plant response rating, Oat, Wild",[10]; [26],60
same,"Plant response rating, Oat, Wild","[10]; 250 g ai/ha, scale 0 to 100",90
same,"Plant response rating, Velvetleaf",[11]; [13],90
same,Velvetleaf plant response rating,"[11]; Postemergence, 500 g ai/ha",100
same,"Plant response rating, Velvetleaf",[11]; [14],100
same,"Plant response rating, Velvetleaf",[11]; [15],100
same,"Plant response rating, Chickweed",[12]; [24],100
same,"Plant response rating, Chickweed",[12]; [25],100
same,"Plant response rating, Chickweed",[12]; [26],100
same,"Plant response rating, Chickweed","[12]; 250 g ai/ha, scale 0 to 100",100

# From patent publication US9302999B2, “Substituted triazoles as herbicides” (E. I. DU PONT DE NEMOURS AND COMPANY, priority 2012, dated 2016)
